Test results as given in patent US20190091259A1, “Selective Chemotherapy Treatments and Diagnostic Methods Related Thereto” (Emory University, priority 2014, published 2019).

Experiments:
H146 = experiment: In vitro cytotoxicity assay, cisplatin sensitivity, H146; type: cell-based; settings: H146 cell line; read-out: IC50 concentration
H128 = experiment: In vitro cytotoxicity assay, cisplatin sensitivity, H128; type: cell-based; settings: H128 cell line; read-out: IC50 concentration
SCLC cell lines [1] = tested on: SCLC cell lines
PARylated proteins = experiment: Level of PARylated proteins in treated cells; type: cell-based; settings: veliparib 5 μmol/L
[2] = Veliparib pharmacokinetic and platinum adducts in tumor-bearing animals; type: in vivo
Protocol: Treated animals were sacrificed either at 1 or 24 h posttreatment by cervical dislocation. Plasma and tumor samples were collected and immediately stored in liquid phase nitrogen or at −70° C. until ready for analysis. Tissues were homogenized in approximately 1 mL of PBS. Veliparib concentrations in plasma and tissue homogenates were quantitated by LC-MS. Concentrations of total platinum in plasma and tissue homogenate were quantitated by atomic absorption spectrophotometry (AAS).

H146 xenografts = type: in vivo
SCLC cell lines [3] = experiment: Short-term MTS cytotoxicity assay in a panel of 9 SCLC cell lines; settings: for single-agent growth inhibition: veliparib 0-128 μmol/L, panel of 9 SCLC cell lines

Work on `N.N.[Cl][Pt][Cl]` [cisplatin] yielded an IC50 (H146) of 5.2 µM and an IC50 (H128) of 14.5 µM.

In the case of `COc1cc([C@@H]2c3cc4c(cc3[C@@H](O[C@@H]3O[C@@H]5CO[C@@H](C)O[C@H]5[C@H](O)[C@H]3O)[C@H]3COC(=O)[C@H]23)OCO4)cc(OC)c1O` [etoposide], the “correlation (CC) of the magnitude of potentiation by veliparib and the sensitivity of the cell line to the cytotoxic agent (single agent IC50)” value (SCLC cell lines [1]) is reported as 0.24.

For `C[C@]1(c2nc3c(C(N)=O)cccc3[nH]2)CCCN1` [veliparib], the “level of PARylated proteins in cells” value (PARylated proteins) was “significant reduction”, the intratumoral platinum concentration ([2]; in the presence of veliparib) was “Increased intratumoral platinum concentration” and the “intratumoral veliparib concentration sufficient for in vivo potentiation of the antitumor effect of cisplatin” value ([2]; tumor) was 2 µmol/L. The “dose dependence of the potentiating effect of veliparib when combined with cisplatin” value (H146 xenografts; FIG. 2B) was “appeared dose dependent”, the “toxicity as indicated by the measured weight of the animals” value (H146 xenografts; veliparib combined with cisplatin) was “without additive toxicity” and the single-agent growth inhibition (SCLC cell lines [3]) was “limited single-agent activity”. The single-agent growth inhibition (SCLC cell lines [3]; listed as Veliparib) was “limited growth inhibition” and the “potentiated the activity of cisplatin, carboplatin, and etoposide” value (SCLC cell lines [3]; veliparib 5 μmol/L) was “not”.
